Experimental data from the NIST ThermoML archive (doi:10.1016/j.fluid.2016.08.002).
± gives the expanded uncertainty stated by the source.

Test: xn = mol fraction of the nth substance listed
Details: Gas, Vibrating tube method

S [hydrogen sulfide] + C
Details	mass density [kg/m3]
252.89 K, 10727 kPa, x2 = 0.8197	209.51 ± 2.2
252.89 K, 11063 kPa, x2 = 0.8197	217.25 ± 2.3
252.89 K, 11429 kPa, x2 = 0.8197	224.63 ± 2.4
252.9 K, 9948 kPa, x2 = 0.8197	181.75 ± 2
252.9 K, 10181 kPa, x2 = 0.8197	191.68 ± 2.1
252.9 K, 10440 kPa, x2 = 0.8197	200.58 ± 2.2
252.9 K, 11825 kPa, x2 = 0.8197	231.88 ± 2.4
252.9 K, 12251 kPa, x2 = 0.8197	239.02 ± 2.4
252.91 K, 9089 kPa, x2 = 0.8197	146 ± 1.7
252.91 K, 9296 kPa, x2 = 0.8197	153.9 ± 1.7
252.91 K, 9508 kPa, x2 = 0.8197	162.6 ± 1.8
252.91 K, 9727 kPa, x2 = 0.8197	172.12 ± 1.9
252.91 K, 12717 kPa, x2 = 0.8197	246.1 ± 2.5
252.92 K, 13223 kPa, x2 = 0.8197	253.09 ± 2.5
252.92 K, 13782 kPa, x2 = 0.8197	260.02 ± 2.6
252.94 K, 1010 kPa, x2 = 0.714	10.45 ± 0.6
252.94 K, 14392 kPa, x2 = 0.8197	266.89 ± 2.7
252.95 K, 1513 kPa, x2 = 0.714	16.11 ± 0.75
252.95 K, 15070 kPa, x2 = 0.8197	273.89 ± 2.8
252.96 K, 508 kPa, x2 = 0.714	5.18 ± 0.47
252.97 K, 15829 kPa, x2 = 0.8197	280.91 ± 2.9
252.98 K, 16314 kPa, x2 = 0.8197	285.18 ± 2.9
252.99 K, 16702 kPa, x2 = 0.8197	288.37 ± 2.9
253 K, 2008 kPa, x2 = 0.714	22.87 ± 0.87
253 K, 21010 kPa, x2 = 0.8197	317.91 ± 2.1
253 K, 21473 kPa, x2 = 0.8197	320.52 ± 2
253 K, 21973 kPa, x2 = 0.8197	323.2 ± 1.9
253 K, 22531 kPa, x2 = 0.8197	326.01 ± 1.9
253 K, 22822 kPa, x2 = 0.8197	327.46 ± 1.8
253 K, 23125 kPa, x2 = 0.8197	329.05 ± 1.8
253.01 K, 17275 kPa, x2 = 0.8197	293.02 ± 2.8
253.01 K, 20084 kPa, x2 = 0.8197	312.27 ± 2.2
253.01 K, 20574 kPa, x2 = 0.8197	315.19 ± 2.1
253.01 K, 23774 kPa, x2 = 0.8197	332.07 ± 1.7
253.01 K, 24145 kPa, x2 = 0.8197	333.77 ± 1.7
253.02 K, 2407 kPa, x2 = 0.714	28.16 ± 0.97
253.02 K, 17701 kPa, x2 = 0.8197	296.11 ± 2.7
253.02 K, 18537 kPa, x2 = 0.8197	302.29 ± 2.5
253.02 K, 19009 kPa, x2 = 0.8197	305.49 ± 2.4
253.02 K, 19564 kPa, x2 = 0.8197	309.06 ± 2.3
253.02 K, 24553 kPa, x2 = 0.8197	335.64 ± 1.6
253.02 K, 25031 kPa, x2 = 0.8197	337.77 ± 1.6
253.03 K, 225 kPa, x2 = 0.8197	2.1 ± 0.37
253.03 K, 18070 kPa, x2 = 0.8197	299 ± 2.6
253.03 K, 25582 kPa, x2 = 0.8197	340.15 ± 1.6
253.04 K, 26249 kPa, x2 = 0.8197	342.94 ± 1.5
253.05 K, 472 kPa, x2 = 0.8197	4.43 ± 0.44
253.05 K, 26980 kPa, x2 = 0.714	414.51 ± 1.8
253.06 K, 26459 kPa, x2 = 0.714	412.74 ± 1.9
253.06 K, 27510 kPa, x2 = 0.8197	348.27 ± 1.5
253.07 K, 1105 kPa, x2 = 0.8197	10.58 ± 0.62
253.07 K, 23585 kPa, x2 = 0.714	402.01 ± 2
253.07 K, 26760 kPa, x2 = 0.8197	345.19 ± 1.5
253.07 K, 27152 kPa, x2 = 0.8197	346.63 ± 1.5
253.07 K, 27494 kPa, x2 = 0.714	416.29 ± 1.8
253.07 K, 28062 kPa, x2 = 0.8197	350.41 ± 1.5
253.08 K, 1496 kPa, x2 = 0.8197	14.53 ± 0.72
253.08 K, 2006 kPa, x2 = 0.8197	20.39 ± 0.86
253.08 K, 28543 kPa, x2 = 0.8197	352.25 ± 1.5
253.08 K, 28966 kPa, x2 = 0.8197	353.85 ± 1.5
253.08 K, 29496 kPa, x2 = 0.8197	355.79 ± 1.5
253.08 K, 30039 kPa, x2 = 0.8197	357.73 ± 1.5
253.09 K, 23043 kPa, x2 = 0.714	399.91 ± 2.1
253.09 K, 24033 kPa, x2 = 0.714	403.73 ± 2
253.09 K, 25963 kPa, x2 = 0.714	410.91 ± 1.9
253.1 K, 21049 kPa, x2 = 0.714	391.7 ± 2.3
253.1 K, 28034 kPa, x2 = 0.714	418.14 ± 1.8
253.11 K, 20550 kPa, x2 = 0.714	389.58 ± 2.4
253.11 K, 25528 kPa, x2 = 0.714	409.34 ± 1.9
253.12 K, 4809 kPa, x2 = 0.8197	59.33 ± 1.2
253.12 K, 19058 kPa, x2 = 0.714	382.7 ± 2.7
253.12 K, 24495 kPa, x2 = 0.714	405.58 ± 2
253.13 K, 5304 kPa, x2 = 0.8197	67.27 ± 1.2
253.13 K, 17511 kPa, x2 = 0.714	374.95 ± 3
253.13 K, 28568 kPa, x2 = 0.714	420 ± 1.8
253.14 K, 16004 kPa, x2 = 0.714	366.38 ± 3.2
253.14 K, 25004 kPa, x2 = 0.714	407.49 ± 1.9
253.15 K, 19521 kPa, x2 = 0.714	384.91 ± 2.6
253.15 K, 21583 kPa, x2 = 0.714	393.97 ± 2.3
253.15 K, 22523 kPa, x2 = 0.714	397.9 ± 2.1
253.16 K, 3517 kPa, x2 = 0.8197	38.95 ± 1.1
253.16 K, 15038 kPa, x2 = 0.714	360.04 ± 3
253.16 K, 18491 kPa, x2 = 0.714	380.05 ± 2.8
253.16 K, 20070 kPa, x2 = 0.714	387.42 ± 2.5
253.16 K, 29087 kPa, x2 = 0.714	421.82 ± 1.8
253.16 K, 29450 kPa, x2 = 0.714	423.08 ± 1.8
253.16 K, 30025 kPa, x2 = 0.714	425.02 ± 1.8
253.17 K, 14005 kPa, x2 = 0.714	352.44 ± 3
253.17 K, 22039 kPa, x2 = 0.714	395.89 ± 2.2
253.18 K, 4507 kPa, x2 = 0.8197	52.31 ± 1.1
253.18 K, 17054 kPa, x2 = 0.714	372.46 ± 3.1
253.19 K, 4054 kPa, x2 = 0.8197	46.42 ± 1.1
253.19 K, 18047 kPa, x2 = 0.714	377.75 ± 2.9
253.21 K, 2947 kPa, x2 = 0.8197	32.5 ± 1
253.21 K, 16513 kPa, x2 = 0.714	369.43 ± 3.2
253.22 K, 15498 kPa, x2 = 0.714	363.19 ± 3.1
253.23 K, 13535 kPa, x2 = 0.714	348.43 ± 2.9
253.25 K, 2607 kPa, x2 = 0.8197	28.21 ± 1
253.25 K, 14514 kPa, x2 = 0.714	356.43 ± 3
253.27 K, 13000 kPa, x2 = 0.714	342.99 ± 2.9
253.28 K, 188 kPa, x2 = 0.8685	1.76 ± 0.37
253.29 K, 508 kPa, x2 = 0.8685	4.8 ± 0.45
253.29 K, 24245 kPa, x2 = 0.8685	303.67 ± 1.5
253.29 K, 24733 kPa, x2 = 0.8685	306.89 ± 1.4
253.3 K, 1250 kPa, x2 = 0.8685	12.25 ± 0.66
253.3 K, 25670 kPa, x2 = 0.8685	310.08 ± 1.4
253.31 K, 1824 kPa, x2 = 0.8685	18.07 ± 0.82
253.31 K, 29542 kPa, x2 = 0.8685	326.32 ± 1.3
253.32 K, 5258 kPa, x2 = 0.8685	55.98 ± 1.2
253.32 K, 6503 kPa, x2 = 0.8685	73.25 ± 1.3
253.32 K, 27359 kPa, x2 = 0.8685	317.71 ± 1.3
253.32 K, 27986 kPa, x2 = 0.8685	320.59 ± 1.3
253.33 K, 2475 kPa, x2 = 0.8685	24.75 ± 1
253.33 K, 5174 kPa, x2 = 0.8685	53.92 ± 1.2
253.33 K, 5895 kPa, x2 = 0.8685	64.88 ± 1.2
253.33 K, 28601 kPa, x2 = 0.8685	322.89 ± 1.3
253.33 K, 29015 kPa, x2 = 0.8685	324.42 ± 1.3
253.33 K, 30002 kPa, x2 = 0.8685	327.17 ± 1.3
253.34 K, 4807 kPa, x2 = 0.8685	49.57 ± 1.1
253.34 K, 6994 kPa, x2 = 0.8685	80.75 ± 1.3
253.35 K, 3335 kPa, x2 = 0.8685	33.57 ± 1.1
253.35 K, 7572 kPa, x2 = 0.8685	90 ± 1.5
253.35 K, 7961 kPa, x2 = 0.8685	99.59 ± 1.5
253.36 K, 4114 kPa, x2 = 0.8685	41.57 ± 1.1
253.36 K, 7255 kPa, x2 = 0.8685	84.54 ± 1.5
253.36 K, 8383 kPa, x2 = 0.8685	108.5 ± 1.6
253.37 K, 8539 kPa, x2 = 0.8685	112.16 ± 1.6
253.38 K, 4487 kPa, x2 = 0.8685	45.79 ± 1.1
253.38 K, 8660 kPa, x2 = 0.8685	115.11 ± 1.6
253.38 K, 8850 kPa, x2 = 0.8685	119.77 ± 1.6
253.39 K, 9030 kPa, x2 = 0.8685	124.2 ± 1.6
